{"source": "patent US20240327471A1", "about": "“IL-10 INDUCING POLYPEPTIDES AND USES THEREOF” (ENTEROME S.A., priority 2021, published 2024)", "key": {"[1]": {"test_system": "monocyte-derived dendritic cells (MoDCs)", "experiment": "NAT_29 dose response, IL-10 secretion from MoDCs co-stimulated with LPS (AlphaLISA)", "type": "cell-based, human", "conditions": "0.1 to 1000 nM; LPS 100 ng/ml; 24 hours", "experimental": "(§1) To investigate the IL-10 inducing/enhancing capacity of NAT_29, in vitro IL-10 secretion of human immune cells in the presence of different doses of NAT_29 was tested. Briefly, human CD14+ monocytes were isolated from peripheral blood mononuclear cells (PBMCs) from healthy human volunteers by density gradient centrifugation using SepMate™-50 IVD tubes (Stemcell, Ref. 85460). The obtained PBMCs were washed thrice with Dulbeccos's phosphate buffered saline (PBS, Sigma, D88537) and lysed 10 min at room temperature in Red blood Lysis buffer 1X (Miltenyi Biotec, 130-094-183). Cells were washed with MACS buffer (Miltenyi Biotec, 130-091-221) and counted using the trypan blue dye exclusion method. CD14+monocytes were sorted using anti-human CD14 Microbeads (Miltenyi Biotec, 130-050-201) as per manufacturer's protocol. Positive CD14+ fractions were collected and seeded at 2×10^4 cells per well in 384 well plates in IMDM medium (Gibco, 12440-046) supplemented with 10% FBS and 1X antibiotic solution.\nMonocyte-derived dendritic cells (MoDCs) were derived from the differentiation of CD14+ cells, obtained after the selective sorting. […]\n(§2) […] IL-10 secretion were measured at 24 hours by AlphaLISA® on cell supernatants according to the supplier's protocol and read on an Envision plate reader (Perkin Elmer)."}, "human CD14+ monocytes": {"test_system": "human CD14+ monocytes", "experiment": "NAT_29 dose response, IL-10 secretion from monocytes co-stimulated with LPS (AlphaLISA)", "type": "cell-based", "conditions": "LPS 100 ng/ml, 24 hours", "experimental": "as §1, §2"}, "human ileal explants": {"test_system": "human ileal explants", "experiment": "Ex vivo human ileal explants in Ussing chambers inflamed with E. coli LF82 (TER, histology, IL-8 ELISA)", "type": "cell-based", "experimental": "Next, the role of NAT_29 was evaluated in the context of inflammatory diseases using ex vivo experiments performed on human ileal resections. To this end, explants were mounted on Ussing Chambers in order to separate the apical side from the basolateral side as naturally occurs in the gut. Tissues were pre-incubated 1 h with NAT_29 (SEQ ID NO: 1) before inflammation was triggered with live Escherichia coli LF82 during 4 hours.\nPreparation of Bacteria: The day before the assay, LB broth (Sigma Aldrich, L3522) was inoculated, using sterile loops, with bacteria from a glycerol stock (E. coli LF82-gfp) maintained at −80° C. Tubes were incubated overnight at 37° C. without shaking. The next day, optical density of the bacterial suspensions was read at 600 nm using a spectrophotometer (Amersham Ultrospec 10) allowing estimation of the bacterial cell density and bacteria were added to human explants as explained below.\nHuman tissue samples were obtained from patients undergoing surgery with the patients' agreement. Samples were taken from macroscopically unaffected area as identified by the surgeon. […]\nThree parameters were assessed to evaluate the anti-inflammatory potential of NAT_29 in the ex vivo model: • 1) Transepithelial Electrical Resistance (TER) which is a measure of integrity/tightness of the human explants; • 2) histology; • 3) IL-8 secretion (quantified by Elisa).\nTER assays are well-known methods for measuring effects on the structural and functional integrity of an epithelial cell layer, which are described, for example, in: Srinivasan et al., 2015, J Lab Autom, 20:107-126. Accordingly, the integrity/tightness of the human explants during the incubation was evaluated through Transepithelial Electrical Resistance (TER) measurement using Millicell-ERS (Electrical Resistance System) Voltohmmeter (Millipore, MERS00002). […]\nIL-8 levels were measured by ELISA (BD Biosciences, 555244). […] Absorbances were measured using a microplate reader (BioTek, Synergy MX, model SMATLD) at 490 nm. […]"}}, "data": [{"sequence": "KKGSRSCFFIYLDRGTKKGSRSCFFYLP (NAT_29) [28-amino-acid fragment of microbiota protein ID3166]", "values": [{"measurement": "IL-10 secretion from MoDCs", "setting": "[1]", "result": "highest IL-10 levels were measured in both cell types at the highest concentration of NAT_29 tested"}, {"measurement": "IL-10 secretion from monocytes", "setting": "human CD14+ monocytes; 0.1 to 1000 nM", "result": "highest IL-10 levels were measured in both cell types at the highest concentration of NAT_29 tested"}, {"measurement": "sensitivity of monocytes versus MoDCs to the action of NAT_29", "setting": "human CD14+ monocytes; IL-10 secretion", "result": "monocytes appeared to be more sensitive than MoDCs"}, {"measurement": "IL-8 secretion (ELISA, basolateral side)", "setting": "human ileal explants; 1000 or 10 nM, LF82 4 h (LF82 alone 4-fold increase)", "result": "completely abolished IL-8 secretion"}, {"measurement": "TER reduction", "setting": "human ileal explants; pre-incubation 1 h at 1000 nM or 10 nM, then E. coli LF82 4 hours, LF82 alone 52%, control without LF82 24%", "result": 32, "unit": "%"}, {"measurement": "histology (H&E staining) of explants", "setting": "human ileal explants; pre-incubation with 1000 nM, LF82 4 h", "result": "protective effect against LF82-induced degradation"}]}]}
